The values below come from patent US11352322B2, “Cyclopropyl-amide compounds as dual LSD1/HDAC inhibitors” (Jubilant Epicore LLC, priority 2016, dated 2022).

Where a name gives a salt, the structure may show the parent alone. Read-outs that look alike come from different tables or passages of the source. A value given as a limit tells only on which side of the number the result lay.

Data set [1] has as its target HDAC6 human recombinant enzyme (Homo sapiens (Human), UniProt Q9UBN7). Briefly: Histone Deacetylase Assay (BPS Biosciences), HDAC6. The class given is biochemical. An excerpt: Histone Deacetylase Assay (BPS Biosciences)
Histone deacetylase assay was done as per manufacturer's instructions.

A further data set concerns HEL-92.1.7. Briefly: cells. As to conditions: Homo sapiens, HEL 92.1.7, 144 h, read-out: Anticancer profileration EC50 HEL-92.1.7. The method, then:
(§1) Anticancer Activity: Alamar Blue Assay
(§2) Cells were seeded at 5000 cells/per well in 96-well tissue culture plate and incubated at 37° C./5% CO2. After 16-24 hours, fresh media was added to the wells. Compounds were then (1% DMSO conc.) added to the cells at 10 concentrations ranging from 10-0.0005 uM prepared in 3-fold serial dilutions. […] Alamar Blue™ reagent was added and incubated for 1-3 hours at 37° C./5% CO2. Plates were read on fluorescence reader at 540 nm excitation, 590 nm emission wave lengths.
(§3) As described above, compounds were tested for anticancer activities in different tumor cell lines and GI50 were determined.

In the next data set the test system is MV-4-11. Briefly: cells. As to conditions: Homo sapiens, MV4-11, 144 h, read-out: Anticancer profileration EC50 MV-4-11. The method, then:
as §1, §2, §3

In a further data set the test system is OCI-AML3. Briefly: cells. The following applies: Homo sapiens, OCI-AML-3, 144 h, read-out: Anticancer profileration EC50 OCI-AML3. Here is the method:
as §1, §2, §3

Another data set addresses LSD1 (Homo sapiens (Human), UniProt O60341). Briefly: TR-FRET Assay for LSD1. The following applies: read-out: LSD1 IC50.
Data set [2] is described as follows: Metabolic stability in liver microsomes, HLM. As to conditions: 1 μM, NADPH. In general terms: Liver microsomes are a subcellular fraction often used to study metabolism.
Procedure: (§4) The microsomal suspension was prepared by adding liver microsomes to 100 mM potassium phosphate buffer (pH7.4) to give a final protein concentration of 0.5 mg/mL. The stock solution of NCE (10 mM in DMSO) was added to the microsomes to provide a final concentration of 1 μM. […] Samples were vortexed and centrifuged at 5,000 rpm for 10 min to remove proteins. Supernatant were analyzed on LC-MS/MS.
The nature of data set [3]: Metabolic stability in liver microsomes, MLM. As to conditions: 1 μM, NADPH.
Procedure: as §4
Data set [4] in a line: In vivo PK studies in mice. Set-up: species or system Male Balb/C mice. As to conditions: for C0 / Vd / Cmax / clearance / half-life / bioavailability: male, Balb/C, mouse, plasma; for clearance: read-out: Cl IV. Here is the method: In Vivo PK Studies in Mice
All the animal experiments were approved by Institutional Animal Ethical Committee (IAEC/JDC/2015/72). Male Balb/C mice (n=24) were procured from Vivo Biotech, Hyderabad, India. The animals were housed in Jubilant Biosys animal house facility in a temperature (22±2° C.) and humidity (30-70%) controlled room (15 air changes/hour) with a 12:12 h light:dark cycles, had free access to rodent feed (Altromin Spezialfutter GmbH & Co. KG., Im Seelenkamp 20, D-32791, Lage, Germany) and water for one week before using for experimental purpose. Following ˜4 h fast (during the fasting period animals had free access to water) animals were divided into two groups (n=12/group). […] Post-dosing serial blood samples (100 μL, sparse sampling was done and at each time point three mice were used for blood sampling) were collected using Micropipettes (Microcaps®; catalogue number: 1-000-0500) through tail vein into polypropylene tubes containing K2.EDTA solution as an anti-coagulant at 0.25, 0.5, 1, 2, 4, 8, 10 and 24 (for oral study) and 0.12, 0.25, 0.5, 1, 2, 4, 8 and 24 (for intravenous study). Plasma was harvested by centrifuging the blood using Biofuge (Hereaus, Germany) at 1760 g for 5 min and stored frozen at −80±10° C. until analysis. Animals were allowed to access feed 2 h post-dosing.
Plasma concentration-time data of the compound was analyzed by non-compartmental method using Phoenix WinNonlin Version 6.3 (Pharsight Corporation, Mountain View, Calif.).

Another data set has as its system MM1S. Briefly: Anticancer activity: Alamar Blue assay, MM1S. In kind it is cell-based. The following applies: Homo sapiens, MM1.S, read-out: MM1S EC50. A general note: Resazurin is reduced to fluorescent resorufin, in cell work by metabolically active cells.
Where [5] appears, read: IV 2 mg/kg, read-out: t1/2 IV (converted).
[6] abbreviates: PO 10 mg/kg, read-out: t1/2 PO (converted).
Where [7] appears, read: PO 50 mg/kg, read-out: t1/2 PO (converted).

HDAC6 human recombinant enzyme, sequence (Q9UBN7 whole entry): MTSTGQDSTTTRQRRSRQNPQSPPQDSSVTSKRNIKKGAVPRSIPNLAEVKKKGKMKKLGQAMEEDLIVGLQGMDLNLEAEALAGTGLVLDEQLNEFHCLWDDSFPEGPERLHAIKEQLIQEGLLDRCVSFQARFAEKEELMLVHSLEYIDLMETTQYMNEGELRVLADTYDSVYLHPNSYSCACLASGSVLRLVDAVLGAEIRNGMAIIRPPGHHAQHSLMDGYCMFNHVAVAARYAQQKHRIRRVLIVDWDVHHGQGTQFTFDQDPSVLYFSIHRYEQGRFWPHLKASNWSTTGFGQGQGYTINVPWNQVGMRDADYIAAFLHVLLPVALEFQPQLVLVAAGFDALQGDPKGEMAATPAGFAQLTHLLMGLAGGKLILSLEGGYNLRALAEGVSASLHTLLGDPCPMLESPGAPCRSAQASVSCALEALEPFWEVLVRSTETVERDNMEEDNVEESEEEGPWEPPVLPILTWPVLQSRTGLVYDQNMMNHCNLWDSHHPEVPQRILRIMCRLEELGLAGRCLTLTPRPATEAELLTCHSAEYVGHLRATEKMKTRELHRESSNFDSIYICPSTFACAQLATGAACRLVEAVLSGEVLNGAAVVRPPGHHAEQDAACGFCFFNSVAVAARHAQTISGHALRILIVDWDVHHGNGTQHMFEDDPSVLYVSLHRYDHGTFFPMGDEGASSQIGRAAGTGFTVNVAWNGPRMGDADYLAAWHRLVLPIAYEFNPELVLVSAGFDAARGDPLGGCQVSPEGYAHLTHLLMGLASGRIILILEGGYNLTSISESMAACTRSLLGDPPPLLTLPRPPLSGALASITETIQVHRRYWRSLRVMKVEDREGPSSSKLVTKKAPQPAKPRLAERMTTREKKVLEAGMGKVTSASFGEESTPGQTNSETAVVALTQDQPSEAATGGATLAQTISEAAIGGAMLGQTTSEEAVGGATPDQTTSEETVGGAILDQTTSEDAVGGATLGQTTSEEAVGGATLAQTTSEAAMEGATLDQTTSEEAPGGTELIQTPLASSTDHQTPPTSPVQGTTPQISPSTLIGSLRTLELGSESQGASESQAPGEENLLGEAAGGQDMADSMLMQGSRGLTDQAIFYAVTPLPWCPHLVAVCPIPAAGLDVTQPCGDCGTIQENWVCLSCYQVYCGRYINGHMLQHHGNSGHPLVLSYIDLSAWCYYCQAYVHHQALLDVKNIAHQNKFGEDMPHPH
Procedure for LSD1: TR-FRET Assay for LSD1 (Perkin Elmer)
Tranylcypromine (TCP), LSD1 inhibitor was procured from Selleckchem. […] Stop Solution containing 300 μM tranylcypromine in 1× LANCE Detection Buffer was added to the wells and incubated for 5 min at RT. Then, Detection mix containing 2 nM Eu-Ab and 50 nM ULight-Streptavidin in 1× LANCE Detection Buffer was prepared and added to the reaction mix. This mixture was incubated for 1 hour at room temperature.

As to `COc1ccc(C2CC2NCC2CCN(CCCc3ccc(C(=O)NO)cc3)CC2)cc1` (stereo not shown) [Example 51, N-hydroxy-4-(3-(4-(((2-(4-methoxyphenyl)cyclopropyl)amino)methyl)piperidin-1-yl)propyl)benzamide TFA Salt], the values for the IC50 (in data set [1]; on LSD1) were 38 nM and 6 nM, respectively. In addition, the EC50 was 3 nM in the data set on HEL-92.1.7, 31 nM in the data set with MV-4-11 and 14 nM in the data set on OCI-AML3. In addition, the “Metabolic stability HLM % remaining in 30 min” value in data set [2] was 74%. For the same molecule, the “Metabolic stability MLM % remaining in 30 min” value in data set [3] is reported as 91%.
`O=C(NO)c1ccc(CCCN2CCC(CNC3CC3c3ccc(-c4ccc(Cl)cc4)cc3)CC2)cc1` (stereo not shown) [Example 56, 4-(3-(4-(((2-(4′-chloro-[1,1′-biphenyl]-4-yl)cyclopropyl)amino)methyl)piperidin-1-yl)propyl)-N-hydroxybenzamide TFA Salt]: the IC50 (commonly the point on the concentration scale where inhibition reaches its midpoint) in [1] came to 19 nM; at LSD1, 2 nM. For the same molecule, the EC50 with HEL-92.1.7 turned out to be 10 nM; in the data set with MV-4-11, 7 nM; with OCI-AML3, 10 nM. For the same molecule, the “Metabolic stability HLM % remaining in 30 min” value in data set [2] came out at 87%. The “Metabolic stability MLM % remaining in 30 min” value in data set [3] amounted to 75%.
As for `O=C(NO)c1ccc(CCCN2CCC(CNC3CC3c3ccc(-c4ccc(F)cc4)cc3)CC2)cc1` (stereo not shown) [Example 57, 4-(3-(4-(((2-(4′-fluoro-[1,1′-biphenyl]-4-yl)cyclopropyl)amino)methyl)piperidin-1-yl)propyl)-N-hydroxybenzamide TFA Salt], the IC50 in data set [1] worked out at 59 nM; on LSD1 it was 21 nM. For the same molecule, the “AUC IV” value in data set [4] (IV 2 mg/kg) is 169 ng/mL/h. For the same molecule, the “AUC PO” value in [4] (PO 10 mg/kg) worked out at 677 ng/mL/h. Further, in data set [4] (IV 2 mg/kg), the C0 worked out at 260 ng/mL. For the same molecule, the Vd (in general, the apparent volume that relates the amount in the body to the concentration in plasma or blood) in data set [4] (IV 2 mg/kg) stood at 28 L/kg. The maximum concentration (Cmax) (usually the maximum level reached in the sampled fluid or tissue) in data set [4] (IV 2 mg/kg, read-out: CMax IV) was 254 ng/mL; in [4] (PO 10 mg/kg, read-out: CMax PO), 217 ng/mL. Also, the clearance in [4] (IV 2 mg/kg) is 190 mL/min/kg. The results for the half-life in [4] (setting [5]) and in data set [4] (setting [6]) were 1.71 h and 1.83 h, respectively. In addition, the bioavailability – broadly, the share of a dose that reaches the circulation, judged against a reference dose that is usually intravenous – in [4] (dose IV/PO 2/10 mg/kg) amounted to 80%. Moreover, in data set [2], the “Metabolic stability HLM % remaining in 30 min” value turned out to be 92%. In [3], the “Metabolic stability MLM % remaining in 30 min” value was 75%.
`O=C(NO)c1ccc(CCCN2CCC(CNC3CC3c3ccc(-c4cncnc4)cc3)CC2)cc1` (stereo not shown) [Example 61, N-hydroxy-4-(3-(4-(((2-(4-(pyrimidin-5-yl)phenyl)cyclopropyl)amino)methyl)piperidin-1-yl)propyl)benzamide TFA Salt]: the IC50 in data set [1] is 121 nM. The EC50 in the data set on MM1S (MM1S cells) is 49 nM. Moreover, in data set [4] (IV 10 mg/kg), the “AUC IV” value stood at 1287 ng/mL/h, the C0 was 5340 ng/mL, the Vd stood at 30 L/kg and the clearance was 125 mL/min/kg. Besides, the “AUC PO” value in data set [4] (PO 50 mg/kg) was 1920 ng/mL/h. Further, the Cmax in data set [4] (IV 10 mg/kg, read-out: CMax IV) came to 2760 ng/mL. In data set [4] (IV 10 mg/kg, read-out: t1/2 IV (converted)), the half-life was 2.8 h. In addition, the Cmax in data set [4] (PO 50 mg/kg, read-out: CMax PO) was 771 ng/mL. Moreover, in data set [4] (setting [7]), the half-life is 1.48 h. For the same molecule, in [4] (dose IV/PO 10/50 mg/kg), the bioavailability was 30%. The IC50 on LSD1 is 12 nM. Also, the “Metabolic stability HLM % remaining in 30 min” value in [2] is 77%. Besides, the “Metabolic stability MLM % remaining in 30 min” value in data set [3] is 66%.
On to `COc1ccc(C2CC2NCc2cn3c(n2)CN(CCCc2ccc(C(=O)NO)cc2)CC3)cc1` (stereo not shown) [Example 71, N-hydroxy-4-(3-(2-(((2-(4-methoxyphenyl)cyclopropyl)amino)methyl)-5,6-dihydroimidazo[1,2-a]pyrazin-7(8H)-yl)propyl)benzamide TFA Salt], for which the IC50 stood at 28 nM in [1] and 1100 nM on LSD1. Also, the EC50 with HEL-92.1.7 was found to be 6050 nM; in the data set on MV-4-11 it was 990 nM; with OCI-AML3, 732 nM. Further, the “Metabolic stability HLM % remaining in 30 min” value in data set [2] is given as 73%. The “Metabolic stability MLM % remaining in 30 min” value in [3] was below 5%.
For the molecule `O=C(NO)c1ccc(CCCN2CCn3cc(CNC4CC4c4ccc(F)cc4)nc3C2)cc1` (stereo not shown) [Example 72, 4-(3-(2-(((2-(4-fluorophenyl)cyclopropyl)amino)methyl)-5,6-dihydroimidazo[1,2-a]pyrazin-7(8H)-yl)propyl)-N-hydroxybenzamide TFA Salt], the IC50 in [1] amounted to 18 nM; at LSD1 it was 730 nM. Moreover, the EC50 in the data set on MM1S came to 343 nM; in the data set with HEL-92.1.7, 4800 nM; in the data set with MV-4-11, 978 nM; in the data set on OCI-AML3, 573 nM. The “Metabolic stability HLM % remaining in 30 min” value in data set [2] is 67%. Besides, the “Metabolic stability MLM % remaining in 30 min” value in [3] was below 5%.
Regarding `O=C(NO)c1ccc(/C=C/C(=O)N2CCC(CN[C@@H]3C[C@H]3c3ccc(F)cc3)CC2)cc1` [Example 115A, 4-((E)-3-(4-((((1R,2S)-2-(4-fluorophenyl)cyclopropyl)amino)methyl)piperidin-1-yl)-3-oxoprop-1-en-1-yl)-N-hydroxybenzamide TFA Salt], the IC50 in data set [1] worked out at 50 nM; at LSD1, 225 nM. Also, the EC50 with MM1S (MM1S cells) was determined as 77 nM. In [4] (IV 2 mg/kg), the “AUC IV” value is 301 ng/mL/h. In data set [4] (PO 10 mg/kg), the “AUC PO” value amounted to 638 ng/mL/h. Moreover, the C0 in [4] (IV 2 mg/kg) was determined as 452 ng/mL. Also, the Vd in [4] (IV 2 mg/kg) is 8 L/kg. For the same molecule, the Cmax came to 452 ng/mL in [4] (IV 2 mg/kg, read-out: CMax IV) and 354 ng/mL in data set [4] (PO 10 mg/kg, read-out: CMax PO). For the same molecule, the clearance in data set [4] (IV 2 mg/kg) worked out at 108 mL/min/kg. Besides, the figures for the half-life in [4] (setting [5]) and in [4] (setting [6]) were 0.87 h and 2.78 h, respectively. In [4] (dose IV/PO 2/10 mg/kg), this molecule yielded a bioavailability of 43%. Further, the “Metabolic stability HLM % remaining in 30 min” value in data set [2] stood at 59%. In [3], the “Metabolic stability MLM % remaining in 30 min” value is given as 90%.
On to `Cn1cc(-c2ccc(C3CC3NCC3CCN(Cc4ccc(C(=O)Nc5ccccc5N)cc4)CC3)cc2)cn1` (stereo not shown) [Example 142, N-(2-aminophenyl)-4-((4-(((2-(4-(1-methyl-1H-pyrazol-4-yl)phenyl)cyclopropyl)amino)methyl)piperidin-1-yl)methyl)benzamide TFA Salt], for which the IC50 in [1] is above 10000 nM. The EC50 with MM1S (MM1S cells) amounted to 120 nM. Also, in data set [4] (IV 2 mg/kg), the “AUC IV” value worked out at 357 ng/mL/h, the C0 was 198 ng/mL, the Vd came to 25 L/kg and the clearance was found to be 88 mL/min/kg. Further, in [4] (PO 50 mg/kg), the “AUC PO” value was 3217 ng/mL/h. In addition, the Cmax in data set [4] (IV 2 mg/kg, read-out: CMax IV) is 150 ng/mL. In addition, the half-life in data set [4] (setting [5]) was 12.6 h. Moreover, in data set [4] (PO 50 mg/kg, read-out: CMax PO), the Cmax came to 555 ng/mL. Moreover, the half-life in [4] (setting [7]) is 6.7 h. Besides, the bioavailability in data set [4] (dose IV/PO 2/50 mg/kg) came to 36%. Besides, at LSD1, the IC50 worked out at 12 nM. The “Metabolic stability HLM % remaining in 30 min” value in data set [2] was determined as 72%. Besides, the “Metabolic stability MLM % remaining in 30 min” value in data set [3] is 52%.
